{"source": "patent US11344534B2", "about": "“Cholinergic agonism for the treatment of pancreatic cancer” (priority 2017, dated 2022)", "key": {"KPC mice": {"system": "KPC mice", "experiment": "KPC mice with established PDAC treated with gemcitabine with or without bethanechol", "assay_type": "in vivo, mouse", "details": "for overall survival (in words): KPC mice with established PDAC, bethanechol + GEM vs GEM alone", "text": "Next, the role of cholinergic signaling in advanced pancreatic cancer was investigated using the genetically engineered KPC (K-Ras^+/LSL-G12D;p53^+/R172H;Pdx-1-Cre) mouse model, which develops ductal adenocarcinoma by 17-19 weeks (Olive et al., 2009, Hingorani et al., 2005).\nK-Ras^+/LSL-G12D, p53^+/R172H, and Pdx-1-Cre mice were provided by Dr. Kenneth Olive (Columbia University). M1RKO mice were purchased from the Jackson Laboratory. KC mice and KPC mice were crossed with M1RKO mice. For several experiments, KC mice received pyloroplasty with or without vagotomy at 8 weeks and KC+VxPP mice were treated with or without bethanechol (400 μg/ml) after surgery immediately. They were sacrificed at 20 weeks. In addition, KPC mice were treated with gemcitabine biweekly and with or without bethanechol when the tumor size of 3-5 mm detected using ultrasound. They were sacrificed when the mice were moribund. For liver metastatic experiments, WT type C57/B6 mice received spleen injection and hemi-splenectomy. […] They were sacrificed when the mice were moribund.\nNext, the role of cholinergic signaling in established PDAC was investigated using the KPC mouse model, which develops PDAC at a median age of 17-19 weeks^2, 29. KPC mice with pancreatic tumors that measured 3-5 mm in diameter on ultrasound were randomized to treatment with gemcitabine (GEM) alone, or GEM+bethanechol (FIG. 8I).\nLSL-Kras^+/LSL-G12D, LSL-Trp53^+/R172H, and Pdx1-Cre mice were bred by Dr. Kenneth P. Olive and co-workers. Chrm1KO mice (C57BL/6-Chrm1tm1 Stl/J, (M1RKO) mice^1 were purchased from the Jackson Laboratory. KC mice and KPC mice were crossed with M1RKO mice. In the vagotomy experiments, KC mice received pyloroplasty with or without vagotomy at 8 weeks, and some KC+VxPP mice were treated with bethanechol ([…] in drinking water) immediately after surgery and then sacrificed at 20 weeks. KPC mice in treatment studies were palpated weekly for tumors in the pancreas. Once a tumor was suspected, KPC mice were screened by VEVO 2100—Ultrasound Imaging System (FUJIFILM VisualSonics) for pancreatic cancer. KPC mice were treated with gemcitabine, given by i.p. injection 100 mg/kg biweekly, with or without bethanechol, when a tumor size of 3-5 mm was detected using ultrasound. Mice were sacrificed when the mice were moribund. NOD/SCID mice were implanted with Panc1 cells subcutaneously and sacrificed at 30 days after implantation. For liver metastatic experiments, WT type C57/B6 mice received a splenic injection of labeled Panc02 cells, followed by hemi-splenectomy. The mice were then divided into three groups. […] Mice were then sacrificed when moribund. At necropsy, hepatic metastases that could clearly be identified as tumor nodules on gross inspection were separated. All animal studies and procedures were approved by the IACUC committee at Columbia University. All mice were bred under specific pathogen free conditions. Comparisons were made with age- and sex-matched control animals.\nCD44, p-EGFR, p-PI3K, p-ERK, and Ki67 positive cells were quantified in at least five high power fields from at least 3 mice per group. Total cells per field were counted via morphometric analysis using ImageJ and the ratio of positive cells to total cell number calculated."}, "[1]": {"details": "cited from earlier work"}, "Panc02 liver metastases": {"system": "Panc02 liver metastases", "experiment": "Panc02 liver metastatic model (splenic injection, hemi-splenectomy)", "assay_type": "in vivo, mouse", "text": "A metastatic mouse model of pancreatic cancer has been developed. The procedure reported by Lei Zheng has been modified and involves resecting half the spleen followed by injection 2×10^6 Panc02 (or other PDAC cell lines) into the spleen (4, 5). (FIG. 3A, B). Mice are then sacrificed 30-60 days later. […] In combination with this metastatic model of pancreatic cancer, a surgical approach to achieve selective cholinergic denervation of the liver has been developed. This involves identifying and isolating the hepatic branch of the vagal nerve, followed by resection of the hepatic branch (FIG. 3E, F).\nIn additional preliminary studies, the effects of bethanechol on the progression of liver metastases and in survival were examined. […] There were 5-8 mice in each group.\nThen, it was examined whether the direct parasympathetic signal influences the metastatic lesions. The liver is a major site of metastatic spread for pancreatic cancer as well as many other solid tumors, and many patients with advanced PDAC eventually die with liver metastases. In order to investigate the role of parasympathetic signaling on the growth of liver metastasis, a well established syngeneic model of metastatic pancreatic cancer (Soares et al. 2014) was utilized. […] Moreover, to confirm that the parasympathetic pathway directly regulated tumor cells at the liver metastatic site, expression of Ki67, CD44 and pEGFR was analyzed.\nLiver metastatic model procedure was performed previously described. (Soares K C et al. 2014) Briefly, a left subcostal incision was performed along the line with the left ear and the spleen was exposed through the incision. The spleen was divided into upper and lower spleen by placing two Horizon medium size ligating clips in the center of the spleen. 150 μl of phosphate buffered saline was drawn up into a 27 G×⅝″ syringe and 100 μl of Panc02 (2×10^6) cells was also drawn up into the same syringe and the cells were injected slowly into the exposed lower-hemispleen. Lower hemisplenectomy was performed by ligating pancreas spleen vessel and cutting above.\nHowever, given that many PDAC patients with metastatic disease (Stage IV) eventually die with liver metastases, the effect of parasympathetic signaling on the growth of hepatic lesions was examined utilizing a well-established syngeneic model of metastatic PDAC^32. […] Moreover, to confirm that the parasympathetic pathway directly regulated tumor cells at the liver metastatic site, expression of Ki67 (FIGS. 12H-K), p-EGFR (FIGS. 12L-O) and CD44 (FIGS. 12P-S) were analyzed immunohistochemically. […]"}, "[2]": {"system": "Organoid cultures derived from LSL-K-Ras^G12D pancreata not treated by an Adeno-Cre virus", "assay_type": "cell-based", "details": "no Adeno-Cre virus (Kras not activated)"}, "CHRM1": {"system": "CHRM1", "experiment": "qRT-PCR of muscarinic receptor expression, human PDAC cell lines", "assay_type": "cell-based", "details": "human PDAC cell lines (MiaPaca2 and Panc1), compared to control"}, "human Panc1 cells": {"system": "human Panc1 cells", "experiment": "Western blot of EGFR/MAPK and PI3K/AKT signaling, Panc1", "assay_type": "cell-based", "method": "To analyze EGFR and the MAPK and PI3K-Akt pathway in human and murine pancreatic cancer cell lines, cells were grown in 12-well plate to around ˜70% confluent, changed the 0.5% FBS medium, added the drugs respectively and incubated them for further 72 hrs incubation in a typical CO2 incubator (˜20% O2). After removing the medium, cells were washed twice with PBS, and protein extraction was performed on ice using RIPA buffer with protease inhibitor (Complete) (Roche) cocktail and phosphatase inhibitor (phosSTOP) (Roche). Protein samples were subsequently separated in 10% Bis-Tris Gel NuPAGE® electrophoresis using MES SDS Running Buffer (Invitrogen, CA, USA). After transfer to nitrocellulose, membranes were blocked with 5% BSA, and samples were probed with the following primary antibodies: p-EGFR (Cell Signaling), EGFR (Cell Signaling), p-BRAF (Cell Signaling), BRAF (Cell Signaling), p-ERK1/2 (phosphorylated p44/42 MAPK) (Thr202/Tyr204) (Cell Signaling), ERK1/2 (p44/42 MAPK) (Thr202/Tyr204) (Cell Signaling), p-PI3K (Cell Signaling), PI3K (Cell Signaling), p-Akt (Cell Signaling), Akt (Cell Signaling), and β-actin (Cell Signaling) followed by horseradish peroxidase-coupled secondary antibody. Immunoreactive bands were visualized using 5-bromo-4-chloro-3-indolyl phosphate/nitro blue tetrazolium and bands were quantified with ImageJ.\nTo analyze EGFR, MAPK and PI3K-AKT pathways in human and murine pancreatic cancer cell lines, cells were grown in 12-well culture plates to ˜70% confluency. The medium was then changed to 0.5% FBS medium, the respective drugs were added, and they were incubated for an additional 72 hours in a CO2 incubator (˜5% CO2). After removing the medium, cells were washed twice with PBS, and protein extraction was performed on ice using RIPA buffer with protease inhibitor (Complete, Roche) cocktail and a phosphatase inhibitor (phosSTOP, Roche). Protein samples were subsequently separated by 10% Bis-Tris Gel NuPAGE® electrophoresis using MES SDS Running Buffer (Invitrogen, CA, USA). After transfer to nitrocellulose, membranes were blocked with 5% BSA, and samples were probed with the following primary antibodies: p-EGFR (Cell Signaling), EGFR (Cell Signaling), p-BRAF (Cell Signaling), BRAF (Cell Signaling), p-ERK1/2 (phosphorylated p44/42 MAPK) (Thr202/Tyr204) (Cell Signaling), ERK1/2 (p44/42 MAPK) (Thr202/Tyr204) (Cell Signaling), p-PI3K (Cell Signaling), PI3K (Cell Signaling), p-AKT (Cell Signaling), AKT (Cell Signaling), and β-actin (Cell Signaling) followed by horseradish peroxidase-coupled secondary antibody. Immunoreactive bands were visualized using 5-bromo-4-chloro-3-indolyl phosphate/nitro blue tetrazolium and bands were quantified with ImageJ."}, "[3]": {"system": "murine PDAC cell lines (Panc02, K8282)", "experiment": "MTT assay, murine PDAC cell lines", "assay_type": "cell-based, mouse", "details": "agonist added to antagonist", "method": "Cell proliferation in each cell line was assessed with a 3-(4,5-dimethylthiazol-2yl)-2,5-diphenyltetrazolium bromide (MTT) assay kit (Sigma) in accordance with the manufacturer's instructions. 3×10^3 cells were grown in 96-well plate to around ˜70% confluent, changed the 0.5% FBS medium, added the drugs respectively and incubated them for further 72 hrs incubation in a typical CO2 incubator (˜20% O2). Treated cells were rinsed twice with PBS, incubated in 10 ll MTT solution for 4 hr at 37° C., and 100 uL DMSO was added to each well. The absorbance of each well was measured at 570 nm using Tilter-Tech 96-well multiscanner (Becton Dickinson, Heidelberg, Germany). The relative number of viable cells compared with the number of cells without drug treatment was expressed as percent cell viability using the following formula:\nCell proliferation in each cell line was assessed with a 3-(4,5-dimethylthiazol-2yl)-2,5-diphenyltetrazolium bromide (MTT) assay kit (Sigma) in accordance with the manufacturer's instructions. 3×10^3 cells were grown in 96-well plate to ˜70% confluency, the media was changed to 0.5% FBS medium, the respective drugs were added, and they were incubated for an additional 72 hours in a CO2 incubator (˜5% CO2). Treated cells were rinsed twice with PBS, incubated in 10 ul MTT (5 mg/ml PBS) solution for 4 hours at 37° C., and 100 uL DMSO was then added to each well. The absorbance of each well was measured at 570 nm using a Tilter-Tech 96-well multiscanner (Becton Dickinson, Heidelberg, Germany). The relative number of viable cells compared with the number of cells without drug treatment was expressed as percent cell viability using the following formula: cell viability (%)=A570 of treated cells/A570 of untreated cells."}, "[4]": {"details": "Panc02 liver metastatic model, at necropsy"}, "[5]": {"details": "Panc02 liver metastatic model, bethanechol vs untreated control"}}, "note": "“Also recorded” adds a separate entry of the source. Where two headings read alike, the source gives them in different places."}
{"smiles": "CC(C[N+](C)(C)C)OC(N)=O", "note": "(centres unmarked) [bethanechol, 2-[(aminocarbonyl)oxy]-N,N,N-trimethyl-1-propanaminium]", "values": [{"measurement": "overall survival (in words)", "setting": "KPC mice", "value": "extended significantly; also recorded: significantly extended"}, {"measurement": "overall survival (in words)", "setting": "KPC mice; listed as Bethanechol", "value": "significantly extended; also recorded: prolongs"}, {"measurement": "expression of p-EGFR, p-PI3K and p-ERK1/2 (immunohistochemical staining)", "setting": "KPC mice; pancreata of KPC mice treated with bethanechol", "value": "suppressed; also recorded: significantly downregulated"}, {"measurement": "toxicity in treatment of xerostomia", "setting": "[1]; cancer patients, 25 mg twice daily for several months", "value": "without any severe (Grade 3) toxicity"}, {"measurement": "side effects in treatment of xerostomia", "setting": "[1]; cancer patients, up to 50 mg three times daily and 25 mg 3 times a day", "value": "did not identify any clinically significant side effects"}, {"measurement": "duration of action", "setting": "[1]; human, in vivo", "value": 6, "unit": "h"}, {"measurement": "interactions with gemcitabine or nab-paclitaxel", "setting": "[1]; human, in vivo", "value": "no reported interactions"}, {"measurement": "toxicity in treatment of xerostomia", "setting": "[1]; oncology, doses up to 50 mg three times daily", "value": "without grade 3 toxicity or need for discontinuation"}, {"measurement": "toxicity of single doses", "setting": "[1]; single doses up to 200 mg", "value": "only mild cholinergic toxicity"}, {"measurement": "(maximum) tumor volume", "setting": "Panc02 liver metastases; [4]", "value": "inhibited"}, {"measurement": "number of tumors", "setting": "Panc02 liver metastases; [4]", "value": "inhibited"}, {"measurement": "survival", "setting": "Panc02 liver metastases; Panc02 liver metastatic model, bethanechol in drinking water, controls 29 days", "value": 41, "unit": "days"}, {"measurement": "survival (in words)", "setting": "Panc02 liver metastases; [5]", "value": "significantly longer; also recorded: extend; also recorded: significantly prolonged"}, {"measurement": "tumor growth", "setting": "Panc02 liver metastases; [5]", "value": "inhibited; also recorded: suppressed"}, {"measurement": "immunohistochemical markers: Ki67, C44, F4/80, nerves (peripherin or neurofilament), phospho-EGFR and phosphor-PI3K", "setting": "Panc02 liver metastases; after bethanechol treatment", "value": "decreased"}, {"measurement": "expression of Ki67, p-EGFR and CD44 in liver metastases", "setting": "Panc02 liver metastases; bethanechol group vs untreated control", "value": "significantly decreased; also recorded: suppression"}, {"measurement": "reduction in Ki-67 staining of Panc02 liver mets", "setting": "Panc02 liver metastases; mice, bethanechol treatment", "value": 50, "unit": "%"}, {"measurement": "sphere forming capacity / growth of WT spheres", "setting": "[2]", "value": "increased"}]}
{"smiles": "CC[C@@H]1C(=O)OC[C@@H]1Cc1cncn1C", "note": "[pilocarpine, (3S,4R)-3-ethyl-4-[(3-methylimidazol-4-yl)methyl]oxolan-2-one]", "values": [{"measurement": "Chrm1 expression", "setting": "CHRM1", "value": "decreased; also recorded: lower"}, {"measurement": "phosphorylation of EGFR, BRAF, ERK1/2, PI3K and AKT kinases (western blot)", "setting": "human Panc1 cells; 72 hours", "value": "significantly less phosphorylated"}, {"measurement": "ratios of p-EGFR/EGFR, p-BRAF/BRAF, p-ERK/ERK, p-PI3K/PI3K and p-AKT/AKT (densitometry)", "setting": "human Panc1 cells; single agent alone", "value": "significantly decreased"}, {"measurement": "increase in proliferation due to muscarinic antagonists", "setting": "[3]", "value": "blocked; also recorded: inhibited to some extent"}, {"measurement": "sphere forming capacity / growth of WT spheres", "setting": "[2]", "value": "stimulates"}]}
